Source: patent publication US20140234455A1, “ANTIMICROBIAL COMPOSITION, METHOD FOR ITS PREPARATION AND ITS USE” (PATOLAB OY, priority 2011, published 2014)

Columns and labels:
Type in all cases: cell-based
Conditions in all cases: tested after one week washing, 24 hours incubation, Example 2 stock diluted 1:1 with tap water
[1] = system: PS. aerug.; assay: Challenge test on a steel plate (EN 13697)
[2] = system: C. albicans; assay: Challenge test on a steel plate (EN 13697)
[3] = system: A. niger; assay: Challenge test on a steel plate (EN 13697)
[4] = system: E. coli; assay: Challenge test on a steel plate (EN 13697)
Method: The test was performed after one week washing the steel plate with the composition.

[5] = system: Enteroc.; assay: Challenge test on a steel plate (EN 13697)
[6] = system: Staphylococcus aureus (MRSA); assay: ISO 20645/20743 challenge test in accordance with EN 13697 on a steel plate

CCO [70% ethanol, ethanol]
log 1: Reduction in growth of microorganisms, PS. aerug. [1] | Reduction in growth of microorganisms, C. albicans [2] | Reduction in growth of microorganisms, A. niger [3] | Reduction in growth of microorganisms, E. coli [4] | Reduction in growth of microorganisms, Enteroc. [5] | Reduction in growth of microorganisms, MRSA (Staphylococcus aureus) [6]
